Reference: patent US10729690B2, “Antihelminthic medications for pathogenic nematodes” (priority 2016, dated 2020)
“Also recorded” adds a separate entry of the source.

Columns and labels:
[1] = system: nematodes; assay: Nematode killing by UPR inducers combined with immunostimulatory molecules; type: in vivo
Text: In one embodiment, the present invention contemplates a method comprising administering small molecules having clinical antihelminthic efficacy by inducing an unfolded protein response (UPR) in endoplasmic reticulum. In one embodiment, the unfolded endoplasmic reticulum protein response is mediated by small molecules including, but not limited to, tunicamycin and bortezomib (Velcade®). […] See, FIG. 4C. Although it is not necessary to understand the mechanism of an invention, it is believed that components of the nematode UPR are strongly conserved and thus UPR inducers will have dose-limiting toxicity in mammals.
Nematocidal activity of different combinations of these molecules and known anti-helminthics (e.g. ivermectin and albendazole) can be tested to identify those that have synergistic activity. For example, antihelminthic efficacy of chemical inducers of the UPR (e.g. tunicamycin) can be used.

[2] = system: C. elegans genome (immune and detoxification gene transcription); conditions: previously observed; not dependent on p38 MAPK PMK-1 pathway; cited from earlier work
[3] = system: F08G5.6::GFP (p38 MAPK PMK-1 pathway-dependent immune effector reporter); assay: F08G5.6::GFP immune transcriptional reporter in C. elegans; type: in vivo
[4] = system: C. elegans; assay: C. elegans survival in the absence of pathogen; type: in vivo
Text: (§1) In reports describing the anti-infective, immunostimulatory xenobiotic R24 it was noted that this compound was toxic to nematodes growing in the absence of pathogen. Pukkila-Worley et al., (2012). […] FIG. 4A. […] FIG. 4B.

[5] = system: p38 MAPK PMK-1-dependent antimicrobial immune effectors; type: in vivo, C. elegans; conditions: qRT-PCR
[6] = system: P. aeruginosa; assay: In vitro P. aeruginosa growth assay in the absence of C. elegans; type: cell-based
[7] = system: C. elegans; assay: C. elegans brood size; type: in vivo; conditions: absence of pathogen
Text: as §1

[8] = system: P. aeruginosa infection of C. elegans; assay: "Slow killing" P. aeruginosa infection (pathogenesis) assay in C. elegans; type: in vivo
[9] = system: p38 MAPK PMK-1-dependent antimicrobial immune effectors; conditions: nanoString codeset of 118 genes; previous study (Pukkila-Worley 2014); cited from earlier work
[10] = system: C. elegans genome (immune and detoxification gene transcription); assay: Transcriptome profiles of wild-type nematodes (Affymetrix whole genome genechips); type: in vivo
Procedure: The effects of R24 on C. elegans was further characterized by generating transcriptome profiles of wild-type nematodes following exposure to either 70 μM R24 or the solvent control DMSO using Affymetrix whole genome […] induced a remarkably robust transcriptional response that involved only a small fraction ( 1.3%) of the genes of the C. elegans genome. […] For example, seventy (70) of the two hundred sixty-nine (269) […]. aeruginosa using a previously described gene set. Troemel et al., (2006).

Row | Compound | killing of nematodes in combination with immunostimulatory molecules [1] | induction of detoxification genes/enzymes (CYPs, GSTs, UDPs) [2] | F08G5.6::GFP expression in nsy-1(ums8) mutant exposed to R24, compared to untreated nsy-1(ums8) animals ([3]; nsy-1(ums8) gain-of-function mutant, 70 μM R24 (FIG. 11B)) | F08G5.6::GFP transgene expression ([3]; uninfected nematodes) | C. elegans survival [4] | antimicrobial immune effectors induced by R24 in wild-type that pmk-1(km25) mutants failed to upregulate [5] | growth of P. aeruginosa in an in vitro assay [6] | brood sizes of nematodes exposed from the first larval stage [7] | ability of R24 to prolong lifespan of C. elegans with mutations in four other p38 MAP kinase pathway components ([8]; p38 MAP kinase pathway mutants, data not shown) | R24-mediated lifespan prolongation of pmk-1(km25) null mutants infected with P. aeruginosa, compared to compound-treated wild-type ([8]; pmk-1(km25) null mutants, P<0.001) | C. elegans survival during P. aeruginosa bacterial infection ([8]; wild-type C. elegans) | number of codeset genes whose induction by R24 was dependent on the p38 MAPK PMK-1 [9] | number of the 269 R24-induced genes activated during infection with P. aeruginosa ([10]; 70 μM R24, overlap P<2.7×10^−16) | number of genes induced more than 50-fold ([10]; 70 μM R24 vs DMSO) | number of genes upregulated three-fold or greater ([10]; 70 μM R24 vs DMSO, P<0.025) | fraction of the genes of the C. elegans genome involved in the transcriptional response ([10]; 70 μM R24 vs solvent control DMSO, wild-type)
1 | CC(C)C[C@H](NC(=O)[C@H](Cc1ccccc1)NC(=O)c1cnccn1)B(O)O [bortezomib] | act synergistically |  |  |  |  |  |  |  |  |  |  |  |  |  |  | 
2 | Cc1ccc(Nc2nc(N)c3ccccc3n2)cc1Cl [R24] |  | robust induction; also recorded: causes the induction | markedly increased | strongly induced | dose dependent shortening | six of ten | lack of effect; also recorded: did not have any effect | dramatically smaller | dramatically attenuated | Lack of improved survivability; also recorded: significantly decreased | dose-dependent improvement; also recorded: Improved survivability; also recorded: protects | 13 genes | 70 genes | 125 genes | 269 genes | ~1.3%
3 | tunicamycin | act synergistically |  |  |  |  |  |  |  |  |  |  |  |  |  |  | 
